For one assay, the system named is naïve CD4+ T-cells. The experiment in a line: ELISPOT, naïve CD4+ T cells stimulated with anti-CD3-Ig and anti-CD28-Ig. In kind it is cell-based, mouse. The note with it: for anti-CD3-Ig/anti-CD28-Ig-mediated IFN-γ production: 100 μM oATP combined with 50 μM NF-449 and 50 μM 5-BDBD. The protocol: The effect of P2X7R targeting was tested by treatment with oATP during T-cell activation. […] Similarly, in a T-cell proliferation assay, CFSE-labeled naïve CD4^+ T-cells were stimulated for 4 days with 0.5 μg/ml anti-CD3-Ig and anti-CD28-Ig; treatment with 100 μM oATP diminished CD4^+ T-cell proliferation (FIG. 5B, right panel) compared to controls (FIG. 5B, left panel).
To address the mechanisms underlying P2X7R targeting mediated inhibition of cardiac transplant rejection, the inventors analyzed the effect of P2X7R targeting on T-cell activation and Th1/Th17 differentiation in vitro. […] The effect of in vitro P2X7R targeting with oATP during CD4+ T-cell activation was tested. […] Second, in a T-cell proliferation assay, carboxyfluorescein diacetate succinimidyl ester-labeled naïve CD4+ T cells were stimulated for 96 hours with 0.5 μg/mL anti-CD3-Ig and anti-CD28-Ig, and treatment with 100 μM oATP diminished CD4+ T cell proliferation in comparison with controls. […] The inventors next tested the effect of in vitro P2X7R targeting during a Th1/Th17 generation and differentiation assay. […] P2X7R targeting with oATP inhibited Th0 conversion into both Th1 and Th17, as assessed by the percentage of IFN-γ+ and IL-17+ cells, respectively. The inventors show, therefore, that P2X7R targeting through oATP suppresses activation, proliferation, and Th1/Th17 differentiation of CD4+ T cells. The inventors then further investigated the role of P2X7R on T-cell activation and Th1/Th17 differentiation by genetic upregulation of P2X7R. P2X7R cDNA was transduced by using a pMY-IRES-GFP retroviral vector into CD4+ T cells (pmY-P2X7R CD4+ T cells), and upregulation of P2X7R expression was confirmed by Western blot. pmY-P2X7R CD4+ T cells were then challenged with anti-CD3-Ig/anti-CD28-Ig stimulation in an ELISPOT assay. […] In a Th1/Th17 generation assay, pmY-P2X7R CD4+ T cells seemed to display increased differentiation capacity in comparison with pmY-mock CD4+ T cells, as assessed by T-bet and ROR-γ expression.
(§1) Several key components of T-cell receptor signaling involved in the alloimmune response were examined, and the phosphorylation kinetics following in vitro anti-CD3-Ig/anti-CD28-Ig-mediated CD4+ T-cell activation was evaluated by using the Luminex assay. […] The inventors first confirmed that Colivelin (Col) was able to restore the activation-induced phosphorylation of STAT3 in a dose-dependent manner in oATP-treated CD4+ T cells by Western blotting. […] The effect of oATP and Colivelin on STAT3 phosphorylation and T-cell function was also evaluated following cardiac transplantation.

A further assay concerns CD4+ and CD8+ T cells. The assay is described as follows: IFN-γ production of CD4+ and CD8+ T cells with Bz-ATP. In kind it is cell-based, mouse.
Assay [1] concerns PBMCs obtained from healthy control subjects. The experiment in a line: ELISPOT, human PBMCs challenged with allogeneic irradiated PBMCs. In kind it is cell-based.
The test system of a further assay is C57BL/6 splenocytes. The experiment in a line: In vitro alloimmune ELISPOT, C57BL/6 responder splenocytes vs irradiated BALB/c splenocytes. It counts as cell-based, mouse. The note with it: selective P2X1R / P2X3R inhibitors. The source says: The effect of increasing doses of oATP on Th1/Th17 cytokine levels was next tested. A dose-dependent response was evident, in which oATP reduced the number of cells producing Th1 cytokines (IFN-γ and IL-2) and Th17 cytokines (IL-6 and IL-17). Because it has been reported that oATP may affect other P2XRs, the inventors made use of the availability of the selective P2X1R inhibitor NF 449 and of the selective P2X3R inhibitor NF 110. C57BL/6 splenocytes were stimulated with irradiated BALB/c splenocytes, and IFN-γ production was evaluated in the presence of these inhibitors.

For assay [2], the system named is C57BL/6 mice transplanted with BALB/c islets. The experiment in a line: Allogeneic islet transplantation, BALB/c islets into diabetic C57BL/6 mice: graft survival. In kind it is in vivo, mouse. The note with it: oATP daily i.p. 14-15 days, rapamycin 0.1 mg/kg 10 days.
Assay [3] has as its system B6 recipients of BALB/c lung allografts. The experiment in a line: Mouse orthotopic lung transplant, BALB/c donor and C57BL/6 recipient. In kind it is in vivo.
Procedure: Orthotopic left lung transplants were performed as previously described {Bizargity, #22; Iken, #21}. Briefly, donor mice were anesthetized with ketamine and xylazine, intubated with a 22 G Angiocath, and ventilated with isoflurane/oxygen. Lungs were flushed with ice cold phosphate buffered saline, left lung harvested and cuffs placed in the pulmonary artery, pulmonary vein and bronchus. Recipient mice were anesthetized and ventilated with isoflurane/oxygen, and left lung transplants performed via a thoracotomy and implantation of the three-cuffed hilar structures. Transplanted lungs were harvested 15 to 60-70 days following transplantation.
Allografts were evaluated 15, 30, and 60-70 days after transplant.
Outcome Measures—In vivo assessment of transplanted lung function was performed by thoracic CT scan imaging and measuring peak airway pressures (PawP) as previously described {Bizargity, #22}. […] Flow cytometry and enzyme-linked immunosorbent spot assay (ELISPOT) for interferon (IFN)-γ and interleukin (IL)-4 were performed as previously described {Vergani, #25; Vergani, #9}.
The test system of assay [4] is C57BL/6 mice transplanted with BALB/c hearts. In kind it is in vivo, mouse. The note with it: oATP-treated cardiac-transplanted mice.
Procedure: The effect of P2X7R targeting in preventing cardiac transplant rejection was tested using the P2X7R inhibitor oATP.
The effect of P2X7R targeting in preventing cardiac transplant rejection was tested by using the P2X7R inhibitor oATP.
Assay [5] deals with STAT3. The experiment in a line: Phosphorylation of T-cell signaling molecules in activated CD4+ T cells (Luminex/Milliplex, Western blot). The note with it: Colivelin add-back, Western blot. It counts as cell-based, mouse. As to the method: 60 minutes after anti-CD3-Ig and anti-CD28-Ig mediated activation, cells were lysed and the phosphorylation status of CREB, Erk, Akt, JNK, p38, p70 S6 Kinase, STAT3, and STAT5A/B was assessed using the Millipore Milliplex Cell Signaling Assay. […] Data were confirmed by western blot (FIG. 6D).
as §1
Background: A western blot detects proteins with antibodies after separation by electrophoresis.

Assay [6] concerns STAT3. The experiment in a line: STAT3 phosphorylation in CD4+ T cells of cardiac-transplanted mice (Western blot). It counts as in vivo, mouse. Conditions: 7 days after transplantation. As to the method: as §1

Entries after “also recorded” stand apart in the source; their conditions may differ.

`O=C1CN=C(c2cccc(Br)c2)c2oc3ccccc3c2N1` [5-BDBD]: the “anti-CD3-Ig/anti-CD28-Ig-mediated IFN-γ production” value with naïve CD4+ T-cells is listed as “further suppression”.

With `Nc1ncnc2c1ncn2[C@@H]1O[C@H](COP(=O)(O)OP(=O)(O)OP(=O)(O)O)[C@@H](OC(=O)c2ccc(C(=O)c3ccccc3)cc2)[C@H]1O` [Bz-ATP, benzoyl-ATP], the IFN-γ production entry with CD4+ and CD8+ T cells (1 mmol/L Bz-ATP, T cells from wildtype mice) is listed as “increased”; in the assay with CD4+ and CD8+ T cells (T cells from P2X7R2/2 mice) it was “similarly stimulated”.

In the case of `COC[C@H](O)Cn1c(=O)cnn(-c2ccc(Cl)c(C(=O)NCC3(O)CCCCCC3)c2)c1=O` [CE-224535], the “allo- and autoimmune responses ex vivo” value in [1] is “inhibition”.

Consider `O=C(Nc1cc(C(=O)Nc2ccc(S(=O)(=O)O)cc2)cc(C(=O)Nc2ccc(S(=O)(=O)O)cc2)c1)Nc1cc(C(=O)Nc2ccc(S(=O)(=O)O)cc2)cc(C(=O)Nc2ccc(S(=O)(=O)O)cc2)c1` [NF 110], for which the “alloantigen-mediated IFN-γ production” value in the assay with C57BL/6 splenocytes is “failed to modulate”.

With `O=C(Nc1cc(C(=O)Nc2ccc(S(=O)(=O)O)cc2S(=O)(=O)O)cc(C(=O)Nc2ccc(S(=O)(=O)O)cc2S(=O)(=O)O)c1)Nc1cc(C(=O)Nc2ccc(S(=O)(=O)O)cc2S(=O)(=O)O)cc(C(=O)Nc2ccc(S(=O)(=O)O)cc2S(=O)(=O)O)c1` [NF 449], the “anti-CD3-Ig/anti-CD28-Ig-mediated IFN-γ production” value with naïve CD4+ T-cells is “further suppression”. In addition, the “alloantigen-mediated IFN-γ production” value with C57BL/6 splenocytes is listed as “failed to modulate”.

Regarding `CO[C@H]1C[C@@H]2CC[C@@H](C)[C@@](O)(O2)C(=O)C(=O)N2CCCC[C@H]2C(=O)O[C@H]([C@H](C)C[C@@H]2CC[C@@H](O)[C@H](OC)C2)CC(=O)[C@H](C)/C=C(\C)[C@@H](O)[C@@H](OC)C(=O)[C@H](C)C[C@H](C)/C=C/C=C/C=C/1C` [Rapamycin], the “islet allograft mean survival time (MST)” value worked out at 19 days in assay [2] and 18 days in assay [2] (listed as rapamycin).

In the case of `Cc1ccc(C(=O)Nc2ccc(S(=O)(=O)O)c3cc(S(=O)(=O)O)cc(S(=O)(=O)O)c23)cc1NC(=O)c1cccc(NC(=O)Nc2cccc(C(=O)Nc3cc(C(=O)Nc4ccc(S(=O)(=O)O)c5cc(S(=O)(=O)O)cc(S(=O)(=O)O)c45)ccc3C)c2)c1` [suramin], the “acute cellular rejection (ACR grade)” value in assay [3] (15, 30 and ≥60 days after transplantation) is recorded as “reduction”. Moreover, the “lung function (PawP)” value in assay [3] (15 to ≥60 days) is on record as “improved”.

Regarding Colivelin, the “reversal of oATP-mediated suppression of IFN-γ-producing cells” value with naïve CD4+ T-cells (Colivelin added to oATP-treated cells) was “significantly revert; also recorded: partially reverted”. In addition, the “effect of Colivelin on oATP-mediated allograft survival” value in [4] is listed as “greatly abrogated the effect of oATP”. For the same compound, in the assay with STAT3 [5], the “activation-induced phosphorylation of STAT3 in oATP-treated CD4+ T cells” value was “restore”. Also, the “phosphorylated STAT3 in CD4+ T cells” value with STAT3 [6] is recorded as “reestablish STAT3 phosphorylation”.
